± gives the expanded uncertainty stated by the source.

The data set is described as follows: activity coefficient (dimensionless); of the first substance listed, at infinite dilution; xn = mol fraction of the nth substance listed. As to conditions: 101 kPa, Liquid, Chromatography, x1 = 0.

Consider `CCCCCCCCCC` [decane] + NCCCCCCCCN, for which the activity coefficient by setting is: (328.15 K) 5.47 ± 0.28; (338.15 K) 4.82 ± 0.25; (343.15 K) 4.58 ± 0.23; (348.15 K) 4.36 ± 0.22.
As to `ClC(Cl)(Cl)Cl` [tetrachloromethane] + NCCCCCCCCCCN, the activity coefficient reads like this: (338.2 K) 2.25 ± 0.12; (348.15 K) 2.05 ± 0.1; (353.22 K) 1.98 ± 0.1.
The corresponding values for `CCCCCCCC` [octane] + NCCCCCCCCCCN are 5.24 ± 0.27, 4.79 ± 0.25 and 4.55 ± 0.23.
Regarding `CCOC(C)=O` [ethyl acetate] + NCCCCCCCCCCCCN, the activity coefficient is 1.36 ± 0.064 (348.25 K), 1.29 ± 0.06 (353.15 K), 1.22 ± 0.056 (358.25 K) and 1.15 ± 0.052 (363.21 K).
For the compound `CCCCCCC` [heptane] + NCCCCCCCCCCCCN, the activity coefficient (348.25 K) worked out at 5.21 ± 0.27, the activity coefficient (353.15 K) stood at 5.13 ± 0.26, the activity coefficient (358.25 K) came to 5.04 ± 0.26 and the activity coefficient (363.21 K) was 4.97 ± 0.26.
Consider `Cc1ccccc1` [toluene] + NCCCCCCCCCCCCN, for which the activity coefficient was found to be 2.6 ± 0.13 (348.25 K), 2.51 ± 0.13 (353.15 K), 2.42 ± 0.12 (358.25 K) and 2.33 ± 0.12 (363.21 K).
The corresponding values for `C=CCCCC` [hex-1-ene] + NCCCCCCCCCCCCN are 4.28 ± 0.22, 4.12 ± 0.21, 3.93 ± 0.2 and 3.8 ± 0.2.
On to `CCCCCCl` [1-chloropentane] + NCCCCCCCCCCN, for which the activity coefficient reads like this: (338.2 K) 2.94 ± 0.15; (348.15 K) 2.43 ± 0.12; (353.22 K) 2.23 ± 0.12.
Take `C=CCCC` [1-pentene] + NCCCCCCCCCCCCN: the activity coefficient turned out to be 4.21 ± 0.22 (348.25 K), 4.04 ± 0.21 (353.15 K), 3.89 ± 0.2 (358.25 K) and 3.75 ± 0.19 (363.21 K).
Take `CO` [methanol] + NCCCCCCCCCCCCN: the activity coefficient by setting is: (348.25 K) 0.774 ± 0.037; (353.15 K) 0.841 ± 0.039; (358.25 K) 0.919 ± 0.041; (363.21 K) 1.01 ± 0.044.
As for `CCCCC` [pentane] + NCCCCCCCCN, the activity coefficient (328.21 K) was 1.37 ± 0.065, the activity coefficient (338.23 K) is 1.27 ± 0.059, the activity coefficient (343.19 K) is 1.22 ± 0.056 and the activity coefficient (348.25 K) worked out at 1.16 ± 0.053.
Turning to `CCCOC(C)=O` [propyl ethanoate] + NCCCCCCCCCCCCN, the activity coefficient is, setting by setting: (348.25 K) 1.55 ± 0.076; (353.15 K) 1.45 ± 0.07; (358.25 K) 1.35 ± 0.064; (363.21 K) 1.26 ± 0.058.
As to `CCCCCl` [1-chlorobutane] + NCCCCCCCCN, the activity coefficient by setting is: (328.15 K) 1.88 ± 0.095; (338.15 K) 1.65 ± 0.081; (343.15 K) 1.55 ± 0.075; (348.15 K) 1.48 ± 0.071.
The corresponding values for `CCCCO` [butan-1-ol] + NCCCCCCCCN are 0.669 ± 0.034, 0.675 ± 0.034, 0.681 ± 0.034 and 0.692 ± 0.035.
Take `ClCCl` [dichloromethane] + NCCCCCCCCCCCCN: the activity coefficient is, setting by setting: (348.25 K) 1.33 ± 0.062; (353.15 K) 1.23 ± 0.057; (358.25 K) 1.12 ± 0.05; (363.21 K) 1.05 ± 0.046.
On to `CCCCCCCl` [1-chlorohexane] + NCCCCCCCCCCN, for which the activity coefficient (338.2 K) came to 3.46 ± 0.18, the activity coefficient (348.15 K) is 2.81 ± 0.14 and the activity coefficient (353.22 K) worked out at 2.54 ± 0.13.
Consider `CCCCCCCC` [octane] + NCCCCCCCCCCCCN, for which the activity coefficient is, setting by setting: (348.25 K) 5.54 ± 0.28; (353.15 K) 5.43 ± 0.28; (358.25 K) 5.27 ± 0.27; (363.21 K) 5.19 ± 0.27.
Consider `CCCCOC(C)=O` [butyl ethanoate] + NCCCCCCCCCCN, for which the activity coefficient is, setting by setting: (338.2 K) 1.5 ± 0.073; (348.15 K) 1.17 ± 0.054; (353.22 K) 1.03 ± 0.046.
For `C=CCCC` [1-pentene] + NCCCCCCCCCCN, the activity coefficient is, setting by setting: (338.2 K) 3.23 ± 0.17; (348.15 K) 2.98 ± 0.15; (353.22 K) 2.88 ± 0.15.
On the same counts, the results for `CCOCC` [diethyl ether] + NCCCCCCCCCCN are 3.84 ± 0.2, 3.69 ± 0.19 and 3.64 ± 0.19.
For the compound `C=CCCCCC` [1-heptene] + NCCCCCCCCCCCCN, the activity coefficient runs as follows: (348.25 K) 4.43 ± 0.23; (353.15 K) 4.22 ± 0.22; (358.25 K) 4.08 ± 0.21; (363.21 K) 3.88 ± 0.2.
For `CCCCCCCC` [octane] + NCCCCCCCCN, the activity coefficient (328.15 K) amounted to 4.73 ± 0.24, the activity coefficient (338.15 K) is 4.4 ± 0.23, the activity coefficient (343.15 K) was 4.24 ± 0.22 and the activity coefficient (348.15 K) is 4.13 ± 0.21.
Regarding `Cc1ccccc1` [toluene] + NCCCCCCCCN, the activity coefficient runs as follows: (328.15 K) 2.39 ± 0.12; (338.15 K) 2.17 ± 0.11; (343.15 K) 2.11 ± 0.11; (348.15 K) 2.07 ± 0.11.
Consider `C=CCCCCCCCC` [1-decene] + NCCCCCCCCCCCCN, for which the activity coefficient is, setting by setting: (348.25 K) 5.05 ± 0.26; (353.15 K) 4.8 ± 0.25; (358.25 K) 4.47 ± 0.23; (363.21 K) 4.24 ± 0.22.
With `ClC(Cl)(Cl)Cl` [tetrachloromethane] + NCCCCCCCCN, the activity coefficient runs as follows: (328.15 K) 2.06 ± 0.11; (338.15 K) 1.66 ± 0.082; (343.15 K) 1.51 ± 0.073; (348.15 K) 1.37 ± 0.065.
On to `CCCCC` [pentane] + NCCCCCCCCCCCCN, for which the activity coefficient is, setting by setting: (348.25 K) 4.76 ± 0.24; (353.15 K) 4.74 ± 0.24; (358.25 K) 4.68 ± 0.24; (363.21 K) 4.63 ± 0.24.
On to `CCCCCCC` [heptane] + NCCCCCCCCCCN, for which the activity coefficient (338.2 K) was found to be 5.05 ± 0.26, the activity coefficient (348.15 K) turned out to be 4.64 ± 0.24 and the activity coefficient (353.22 K) turned out to be 4.46 ± 0.23.
As to `ClC(Cl)(Cl)Cl` [tetrachloromethane] + NCCCCCCCCCCCCN, the activity coefficient runs as follows: (348.25 K) 2.37 ± 0.12; (353.15 K) 2.28 ± 0.12; (358.25 K) 2.06 ± 0.11; (363.21 K) 1.98 ± 0.1.
Regarding `Cc1ccccc1` [toluene] + NCCCCCCCCCCN, the activity coefficient is, setting by setting: (338.2 K) 2.52 ± 0.13; (348.15 K) 2.23 ± 0.12; (353.22 K) 2.13 ± 0.11.
As to `c1ccccc1` [benzene] + NCCCCCCCCN, the activity coefficient (328.15 K) was determined as 1.8 ± 0.09, the activity coefficient (338.15 K) came to 1.67 ± 0.083, the activity coefficient (343.15 K) worked out at 1.62 ± 0.08 and the activity coefficient (348.15 K) came out at 1.59 ± 0.078.
As for `CCO` [ethanol] + NCCCCCCCCCCCCN, the activity coefficient (348.25 K) was determined as 0.828 ± 0.039, the activity coefficient (353.15 K) came to 0.891 ± 0.04, the activity coefficient (358.25 K) worked out at 0.952 ± 0.042 and the activity coefficient (363.21 K) worked out at 1.03 ± 0.045.
For `CCOC(C)=O` [ethyl acetate] + NCCCCCCCCCCN, the activity coefficient (338.2 K) is 1.16 ± 0.053, the activity coefficient (348.15 K) was 0.951 ± 0.042 and the activity coefficient (353.22 K) was 0.868 ± 0.04.
For the compound `CCCCCC` [hexane] + NCCCCCCCCCCCCN, the activity coefficient worked out at 4.86 ± 0.25 (348.25 K), 4.8 ± 0.25 (353.15 K), 4.74 ± 0.24 (358.25 K) and 4.69 ± 0.24 (363.21 K).
As to `C=CCCCCCC` [oct-1-ene] + NCCCCCCCCCCCCN, the activity coefficient is, setting by setting: (348.25 K) 4.83 ± 0.25; (353.15 K) 4.53 ± 0.23; (358.25 K) 4.33 ± 0.22; (363.21 K) 4.11 ± 0.21.

(Values after the NIST ThermoML archive (doi:10.1021/je200628n).)
